Earlier results, collected in US5164490A, “Pneumocystis carinii dihydrofolate reductase gene and methods for its use” (The Regents of the University of California, priority 1989, dated 1992).

Test system: P. carinii
Conditions: trimethoprim alone

SMILES: COc1cc(Cc2cnc(N)nc2N)cc(OC)c1OC [trimethoprim]
- efficacy in the rat model of P. carinii infection: lack of efficacy
